Laboratory results as given in US20260217767A1, “NOVEL A4B7 THIOETHER PEPTIDE DIMER ANTAGONISTS” (Protagonist Therapeutics, Inc., priority 2014, published 2026).
pIC50: −log10 of the molar value. *1 amine or outer side, *2 acyl side, *3 side chain or, on linkers, in order; H or OH if unused. Where a SMILES comes first, the peptide text is derived from it. Bridges are numbered along the chain shown (N, C = ends). Roman numbers before positions name the chains, in order. [ ]: non-standard residue; d: D form. Phe(4-CF3) = N[C@@H](Cc1ccc(C(F)(F)F)cc1)C(=O)O; 1Nal = N[C@@H](Cc1cccc2ccccc12)C(=O)O; Diglycolyl = O=C(COCC(=O)[*:2])[*:1]; NMeR = CN[C@@H](CCCNC(=N)N)C(=O)O; Tic = O=C(O)[C@@H]1Cc2ccccc2CN1; β3hE = N[C@@H](CCC(=O)O)CC(=O)O; X1 = O=C(c1ccccc1C[*:2])[*:1]; Pen = CC(C)(S)[C@H](N)C(=O)O; hCys = N[C@@H](CCS)C(=O)O

Molecular target: T1, RPMI 8866 cells (Homo sapiens, UniProt P13612+P26010)
T1 sequence (P13612 34-1032): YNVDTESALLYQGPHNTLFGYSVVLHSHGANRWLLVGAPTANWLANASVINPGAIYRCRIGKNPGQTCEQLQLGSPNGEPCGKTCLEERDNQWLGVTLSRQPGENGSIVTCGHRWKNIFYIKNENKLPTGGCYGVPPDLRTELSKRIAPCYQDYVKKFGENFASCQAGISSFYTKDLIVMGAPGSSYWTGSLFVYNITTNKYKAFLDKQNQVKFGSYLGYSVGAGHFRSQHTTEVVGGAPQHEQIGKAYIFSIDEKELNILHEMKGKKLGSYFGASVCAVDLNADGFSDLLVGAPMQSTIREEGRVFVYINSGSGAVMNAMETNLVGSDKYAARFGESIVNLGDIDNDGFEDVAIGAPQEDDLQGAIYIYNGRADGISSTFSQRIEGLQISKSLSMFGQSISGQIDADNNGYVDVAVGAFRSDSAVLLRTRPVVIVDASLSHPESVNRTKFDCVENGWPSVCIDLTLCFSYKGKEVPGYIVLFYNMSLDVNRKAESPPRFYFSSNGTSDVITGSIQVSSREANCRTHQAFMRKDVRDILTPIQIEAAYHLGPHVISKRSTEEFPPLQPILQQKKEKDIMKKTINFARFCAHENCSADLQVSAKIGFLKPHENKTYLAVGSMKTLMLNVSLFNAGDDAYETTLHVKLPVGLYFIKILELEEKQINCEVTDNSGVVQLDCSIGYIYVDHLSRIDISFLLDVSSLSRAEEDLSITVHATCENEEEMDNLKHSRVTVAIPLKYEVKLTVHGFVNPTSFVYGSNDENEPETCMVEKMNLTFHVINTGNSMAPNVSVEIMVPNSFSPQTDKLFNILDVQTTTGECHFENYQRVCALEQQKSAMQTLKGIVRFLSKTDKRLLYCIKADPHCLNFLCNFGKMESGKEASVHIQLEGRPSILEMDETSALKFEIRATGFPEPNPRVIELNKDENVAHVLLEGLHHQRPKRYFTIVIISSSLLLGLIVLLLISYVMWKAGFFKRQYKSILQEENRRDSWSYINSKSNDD
T1 sequence (P26010 20-798): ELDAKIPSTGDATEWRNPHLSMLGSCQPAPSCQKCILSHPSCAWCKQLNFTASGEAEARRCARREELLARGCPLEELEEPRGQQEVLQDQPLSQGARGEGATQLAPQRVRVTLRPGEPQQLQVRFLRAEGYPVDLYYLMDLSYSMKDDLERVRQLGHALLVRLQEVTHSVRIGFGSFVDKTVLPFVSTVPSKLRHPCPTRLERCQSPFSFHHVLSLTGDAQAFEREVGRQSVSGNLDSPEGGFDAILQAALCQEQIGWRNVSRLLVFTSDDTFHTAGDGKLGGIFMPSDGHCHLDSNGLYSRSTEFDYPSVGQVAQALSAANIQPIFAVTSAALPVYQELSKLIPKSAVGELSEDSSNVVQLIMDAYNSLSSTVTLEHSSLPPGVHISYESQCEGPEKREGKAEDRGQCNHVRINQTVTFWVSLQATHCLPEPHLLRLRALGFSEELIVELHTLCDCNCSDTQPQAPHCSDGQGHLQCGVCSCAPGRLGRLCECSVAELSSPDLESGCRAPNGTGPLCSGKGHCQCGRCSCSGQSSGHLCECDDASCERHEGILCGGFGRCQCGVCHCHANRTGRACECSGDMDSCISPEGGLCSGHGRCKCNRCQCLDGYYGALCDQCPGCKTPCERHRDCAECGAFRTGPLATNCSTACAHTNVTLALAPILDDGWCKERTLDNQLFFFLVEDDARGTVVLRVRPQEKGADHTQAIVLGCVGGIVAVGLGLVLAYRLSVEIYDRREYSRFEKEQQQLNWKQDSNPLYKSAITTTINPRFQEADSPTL
Assay: α4β7-MAdCAM Cell Adhesion Assay
Assay type: cell-based
Conditions: thioether peptide dimers, Table 7; read-out: Cell-Adhesion A4B7
In short: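 Peptide inhibition of adhesion measured with MAdCAM-1/Fc chimera immobilised at 200 ng/well and MnCl2-activated (1 mM) RPMI 8866 cells, 30-45 min at 37° C. Adherent cells remaining after three washes detected by MTT reduction at 570 nm, corrected for no-cell wells, giving dose response.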

Compound	pIC50
CC(C)C[C@@H]1NC(=O)[C@H]([C@@H](C)O)NC(=O)[C@H](CC(=O)O)NC(=O)[C@H](CO)NC(=O)[C@H](CCCNC(=N)N)N(C)C(=O)CSC[C@@H](C(=O)N[C@@H](Cc2c[nH]c3ccccc23)C(=O)N[C@H](CCCCNC(=O)COCC(=O)NCCCC[C@@H](NC(=O)[C@H](Cc2c[nH]c3ccccc23)NC(=O)[C@@H]2CSCC(=O)N(C)[C@@H](CCCNC(=N)N)C(=O)N[C@@H](CO)C(=O)N[C@@H](CC(=O)O)C(=O)N[C@@H]([C@@H](C)O)C(=O)N[C@@H](CC(C)C)C(=O)N2)C(N)=O)C(N)=O)NC1=O [compound 143]	6.00 to 7.00
CC(C)C[C@@H]1NC(=O)[C@H]([C@@H](C)O)NC(=O)[C@H](CC(=O)O)NC(=O)[C@H](CO)NC(=O)[C@H](CCCNC(=N)N)N(C)C(=O)c2ccccc2CSC[C@H](C(=O)N[C@@H](Cc2c[nH]c3ccccc23)C(=O)N[C@@H](CCC(=O)O)CC(=O)N[C@H](CCCCNC(=O)COCC(=O)NCCCC[C@@H](NC(=O)C[C@H](CCC(=O)O)NC(=O)[C@H](Cc2c[nH]c3ccccc23)NC(=O)[C@H]2CSCc3ccccc3C(=O)N(C)[C@@H](CCCNC(=N)N)C(=O)N[C@@H](CO)C(=O)N[C@@H](CC(=O)O)C(=O)N[C@@H]([C@@H](C)O)C(=O)N[C@@H](CC(C)C)C(=O)N2)C(N)=O)C(N)=O)NC1=O [compound 156] (I: [NMeR]SDTL[dC]W[β3hE][dK]-NH2 / II: [NMeR]SDTL[dC]W[β3hE][dK]-NH2; linker I:9-II:9 via Diglycolyl; linker I:N-I:6, II:N-II:6 via X1)	7.00 to 7.60
CC(C)C[C@@H]1NC(=O)[C@H]([C@@H](C)O)NC(=O)[C@H](CC(=O)O)NC(=O)[C@H](CO)NC(=O)[C@H](CCCNC(=N)N)N(C)C(=O)c2ccccc2CSCC[C@@H](C(=O)N[C@@H](Cc2c[nH]c3ccccc23)C(=O)N[C@@H](CCC(=O)O)C(=O)N[C@H](CCCCNC(=O)COCC(=O)NCCCC[C@@H](NC(=O)[C@H](CCC(=O)O)NC(=O)[C@H](Cc2c[nH]c3ccccc23)NC(=O)[C@@H]2CCSCc3ccccc3C(=O)N(C)[C@@H](CCCNC(=N)N)C(=O)N[C@@H](CO)C(=O)N[C@@H](CC(=O)O)C(=O)N[C@@H]([C@@H](C)O)C(=O)N[C@@H](CC(C)C)C(=O)N2)C(N)=O)C(N)=O)NC1=O [compound 157] (I: [NMeR]SDTL[hCys]WE[dK]-NH2 / II: [NMeR]SDTL[hCys]WE[dK]-NH2; linker I:9-II:9 via Diglycolyl; linker I:N-I:6, II:N-II:6 via X1)	7.00 to 7.60
CC(C)C[C@@H]1NC(=O)[C@H]([C@@H](C)O)NC(=O)[C@H](CC(=O)O)NC(=O)[C@H](CO)NC(=O)[C@H](CCCNC(=N)N)N(C)C(=O)c2ccccc2CSC(C)(C)[C@@H](C(=O)N[C@@H](Cc2cccc3ccccc23)C(=O)N[C@H](CCC(=O)O)C(=O)N[C@H](CCCCNC(=O)COCC(=O)NCCCC[C@@H](NC(=O)[C@@H](CCC(=O)O)NC(=O)[C@H](Cc2cccc3ccccc23)NC(=O)[C@H]2NC(=O)[C@H](CC(C)C)NC(=O)[C@H]([C@@H](C)O)NC(=O)[C@H](CC(=O)O)NC(=O)[C@H](CO)NC(=O)[C@H](CCCNC(=N)N)N(C)C(=O)c3ccccc3CSC2(C)C)C(N)=O)C(N)=O)NC1=O [compound 158] (I: [NMeR]SDTL[Pen][1Nal][dE][dK]-NH2 / II: [NMeR]SDTL[Pen][1Nal][dE][dK]-NH2; linker I:9-II:9 via Diglycolyl; linker I:N-I:6, II:N-II:6 via X1)	> 7.60
CC(C)C[C@@H]1NC(=O)[C@H]([C@@H](C)O)NC(=O)[C@H](CC(=O)O)NC(=O)[C@H](CO)NC(=O)[C@H](CCCNC(=N)N)N(C)C(=O)c2ccccc2CSC(C)(C)[C@@H](C(=O)N[C@@H](Cc2ccc(C(F)(F)F)cc2)C(=O)N[C@@H](CCC(=O)O)C(=O)N[C@H](CCCCNC(=O)COCC(=O)NCCCC[C@@H](NC(=O)[C@H](CCC(=O)O)NC(=O)[C@H](Cc2ccc(C(F)(F)F)cc2)NC(=O)[C@H]2NC(=O)[C@H](CC(C)C)NC(=O)[C@H]([C@@H](C)O)NC(=O)[C@H](CC(=O)O)NC(=O)[C@H](CO)NC(=O)[C@H](CCCNC(=N)N)N(C)C(=O)c3ccccc3CSC2(C)C)C(N)=O)C(N)=O)NC1=O [compound 166] (I: [NMeR]SDTL[Pen][Phe(4-CF3)]E[dK]-NH2 / II: [NMeR]SDTL[Pen][Phe(4-CF3)]E[dK]-NH2; linker I:9-II:9 via Diglycolyl; linker I:N-I:6, II:N-II:6 via X1)	> 7.60
CC(C)C[C@@H]1NC(=O)[C@H]([C@@H](C)O)NC(=O)[C@H](CC(=O)O)NC(=O)[C@H](CO)NC(=O)[C@H](CCCNC(=N)N)N(C)C(=O)c2ccccc2CSC(C)(C)[C@@H](C(=O)N[C@@H](Cc2cccc3ccccc23)C(=O)N[C@@H](CCC(=O)O)C(=O)N[C@H](CCCCNC(=O)COCC(=O)NCCCC[C@@H](NC(=O)[C@H](CCC(=O)O)NC(=O)[C@H](Cc2cccc3ccccc23)NC(=O)[C@H]2NC(=O)[C@H](CC(C)C)NC(=O)[C@H]([C@@H](C)O)NC(=O)[C@H](CC(=O)O)NC(=O)[C@H](CO)NC(=O)[C@H](CCCNC(=N)N)N(C)C(=O)c3ccccc3CSC2(C)C)C(N)=O)C(N)=O)NC1=O [compound 167] (I: [NMeR]SDTL[Pen][1Nal]E[dK]-NH2 / II: [NMeR]SDTL[Pen][1Nal]E[dK]-NH2; linker I:9-II:9 via Diglycolyl; linker I:N-I:6, II:N-II:6 via X1)	> 7.60
CC(C)C[C@@H]1NC(=O)[C@H]([C@@H](C)O)NC(=O)[C@H](CC(=O)O)NC(=O)[C@H](CO)NC(=O)[C@H](CCCNC(=N)N)N(C)C(=O)c2ccccc2CSC(C)(C)[C@@H](C(=O)N[C@@H](Cc2ccc(-c3ccccc3)cc2)C(=O)N[C@H](CCC(=O)O)C(=O)N[C@H](CCCCN)C(N)=O)NC1=O [compound 178] (HELM PEPTIDE1{[meR].S.D.T.L.[Pen].[O=C([C@H](Cc1ccc(-c2ccccc2)cc1)N[*:1])[*:2]].[dE].[dK].[am]}|CHEM1{[O=C(c1ccccc1C[*:2])[*:1]]}$PEPTIDE1,CHEM1,1:R1-1:R1|PEPTIDE1,CHEM1,6:R3-1:R2$$$V2.0)	> 7.60
CC(C)C[C@@H]1NC(=O)[C@H]([C@@H](C)O)NC(=O)[C@H](CC(=O)O)NC(=O)[C@H](CO)NC(=O)[C@H](CCCNC(=N)N)N(C)C(=O)c2ccccc2CSC[C@@H](C(=O)N2Cc3ccccc3C[C@H]2C(=O)N[C@H](CCC(=O)O)C(=O)N[C@H](CCCCNC(=O)COCC(=O)NCCCC[C@@H](NC(=O)[C@@H](CCC(=O)O)NC(=O)[C@@H]2Cc3ccccc3CN2C(=O)[C@@H]2CSCc3ccccc3C(=O)N(C)[C@@H](CCCNC(=N)N)C(=O)N[C@@H](CO)C(=O)N[C@@H](CC(=O)O)C(=O)N[C@@H]([C@@H](C)O)C(=O)N[C@@H](CC(C)C)C(=O)N2)C(N)=O)C(N)=O)NC1=O [compound 184] (I: [NMeR]SDTLC[Tic][dE][dK]-NH2 / II: [NMeR]SDTLC[Tic][dE][dK]-NH2; linker I:9-II:9 via Diglycolyl; linker I:N-I:6, II:N-II:6 via X1)	> 7.60
